{"source": "paper doi:10.1101/2022.11.11.516135v3", "about": "(biorxiv, 2024)", "target": "G3BP1-NTF2 (residues 1-139); NTF2-like domain of G3BP1 (Homo sapiens, UniProt Q13283)", "sequence (Q13283 1-139)": "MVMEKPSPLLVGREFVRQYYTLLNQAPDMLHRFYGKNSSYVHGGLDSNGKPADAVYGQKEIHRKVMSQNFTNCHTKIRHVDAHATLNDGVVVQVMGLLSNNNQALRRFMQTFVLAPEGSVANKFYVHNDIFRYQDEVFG", "assay": "biochemical", "format": "binding"}
{"compound": "CC[C@H](NC(=O)c1c(C)c(-c2ccccc2)nc2ccccc12)c1ccccc1", "note": "[SB2, SB_222200]", "values": [{"measurement": "Kd", "value": 66, "unit": "µM"}]}
{"compound": "CNC(=O)c1c(F)cccc1Nc1nc(Nc2cc3c(cc2OC)CCN3C(=O)CN(C)C)nc2[nH]ccc12", "note": "[GSK, GSK1838705A]", "values": [{"measurement": "Kd", "value": 98, "unit": "µM"}]}
{"compound": "O=C1NCN(c2ccccc2)C12CCN(CCCC(c1ccc(F)cc1)c1ccc(F)cc1)CC2", "note": "[FLU, Fluspiriline]", "values": [{"measurement": "Kd", "value": 71.4, "unit": "µM"}]}
{"compound": "CN1C[C@H](C(=O)N[C@]2(C)O[C@@]3(O)[C@@H]4CCCN4C(=O)[C@H](Cc4ccccc4)N3C2=O)C[C@@H]2c3cccc4[nH]cc(c34)C[C@H]21", "note": "[DHD, Dihydroergotamine]", "values": [{"measurement": "Kd", "value": 54, "unit": "µM"}]}
{"compound": "COc1ccc(Br)cc1S(=O)(=O)NC(=O)/C=C/c1ccccc1Cc1ccc2ccccc2c1", "note": "[L-7, L-798106]", "values": [{"measurement": "Kd", "value": 18.7, "unit": "µM"}]}
